Four molecules from patent US20250345334A1, “METHODS OF TREATING PROSTATE CANCER” (The University of Chicago, priority 2024, published 2025) can be followed below.

For test [1], the system named is CWRR1-Ctl xenograft tumors. Description: CRPC xenograft model, time to 4x tumor volume. As to conditions: 10 mg/kg ENZ, 50 mg/kg MK-1775, daily for 30 days; for median time to endpoint (4x tumor volume relative to volume at randomization): censored at day 31. Type of test: in vivo, athymic nude mice. Here is the method:
To strengthen the correlation between in vitro and […] studies thereby enhancing translational relevance, an in vivo experiment using a CRPC xenograft model was performed. Following inoculation with CWRR1-Ctl cells, tumor bearing athymic nude mice with a measured tumor volume of ˜150-200 mm^3 were randomized into 4 treatment arms: Vehicle (N=5), 10 mg/kg ENZ (N=8), 50 mg/kg MK-1775 (N=8), and 10 mg/kg ENZ+50 mg/kg MK-1775 (N=8). Mice were treated daily for a period of 30 days. Endpoint for this study was defined as time to 4× tumor volume relative to volume at randomization, representing a lethal tumor burden. Mice who had not reached endpoint at 30 days of treatment were censored at day 31. […] Median time to endpoint for vehicle-, ENZ- and WEE1i-treated mice was 21, 29.5 and 29.5 days, respectively, compared to ENZ+WEE1i-treated mice, which was not reached, as 75% of mice remained without defined progression at 31 days (FIG. 4D).

For test [2], the system named is CDK1, pCDK1, pHistone H3 and cleaved PARP in CWRR1-Ctl cells. Description: Western blotting in CWRR1-Ctl cells. As to conditions: Western blot. Type of test: cell-based, human. In general terms: A western blot detects proteins with antibodies after separation by electrophoresis.
Test [3] deals with CDK1, pCDK1 and pHistone H3 in NCI-H660 cells. Briefly: Western blotting in NCI-H660 cells. Type of test: cell-based, human. The following applies: Western blot.
For test [4], the system named is CWRR1-Ctl cells. Briefly: Proliferation assay, Incucyte S3 live imaging of nuclear GFP, SOX2-positive CWRR1-Ctl cells. It counts as cell-based, human. The following applies: 10% CSS supplemented with R-1881, 150 h (~6 days).
Test [5] deals with NCI-H660 cells. Briefly: cells. The following applies: Homo sapiens, NCI-H660, 144 h, read-out: % cell viability relative to 10 nM HC treatment.
Test [6] deals with CWRR1-SOX2KO cells. Description: Proliferation assay, Incucyte S3 live imaging of nuclear GFP, CWRR1-SOX2KO cells. Type of test: cell-based, human. As to conditions: 10% CSS supplemented with R-1881, 150 h.
Test [7] deals with E2F1, WEE1, CDK1 and p57 in SOX2KO cells. Description: Western blotting in CWRR1-SOX2KO cells. It counts as cell-based, human. The following applies: Western blot. Here is the method: FIGS. 1A-1D. RNA-seq in Control (Ctl) and -SOX2Ko Cells. Ctl or SOX2^KO cells were cultured in 10% charcoal-stripped media with vehicle (R-1881) or ENZ for 72 hrs, then total RNA was recovered for RNA-seq. […] (FIG. 1B) Top gene set pathways enriched by KEGG using Web Gestalt for unique, differentially expressed genes in SOX2^KO cells following ENZ treatment relative to vehicle. Pathways are ranked by strength of significance (P-value). (FIG. 1C) Normalized counts from RNA-seq of representative cell cycle-related genes (CDK1, E2F1, WEE1, CDKN2A, TGFB1, and CDKN1C) across treatment conditions for Ctl and SOX2^KO cells are graphed. Error bars for normalized count data represent +/−SEM for triplicate samples in each condition. Asterisks represent significant differences with the following adjusted p-values: **1E-03 to 1E-09, ***1.0E-10 to 1.0E-19, ****[…] 1.0E-20. (FIG. 1D) Western blots in Ctl and SOX2^KO cells treated with (3.5 μM R-1881) vehicle or ENZ ([…]) for SOX2 and cell cycle proteins encoded by highlighted genes: WEE1, E2F1, CDK1, and p57, confirm relative expression levels observed by RNA-seq. j-Actin was blotted as a loading control. […]

The test system of test [8] is CWRR1-Ctl cells. Briefly: Propidium iodide staining, cell cycle status. Type of test: cell-based, human. The following applies: 10 μM ENZ, 0.8 μM MK-1775, 6 days. Here is the method:
FIGS. 5A-5C. […] (FIG. 5A) Western blotting in CWRR1-Ctl cells cultured in 10% CSS supplemented with R-1881 and treated with: Vehicle (R; 3.5 μM R-1881), and AR-inhibited conditions ([…] R/10 μM ENZ)+/−0.8 μM MK-1775 (WEE1 inhibition) comparing phosphorylated Histone H3 (indicator of cells in M phase) and cleaved PARP (indicator of apoptosis). 3-Actin was blotted as a loading control. […] (FIG. 5C) β-galactosidase activity in CWRR1-Ctl cells treated with either 10 μM ENZ or 10 μM ENZ in combination with 0.8 μM MK-1775 for 6 days. […] Error bars for propidium iodide staining and β-galactosidase activity data represent +/−SEM of 6 replicates tested in each condition, respectively.
WEE1 plays a central role in negatively regulating mitotic phase entry (i.e. the G2/M checkpoint) through phosphorylation of CDK1 [29]. […] PARP-1 is a known substrate of caspase-mediated apoptotic cell death, and cleaved PARP (c-PARP) is a hallmark of apoptosis.

In test [9] the test system is NCI-H660 cells. The following applies: 6 days.

Entries after “also recorded” stand apart in the source; their conditions may differ.

On to `C=CCn1c(=O)c2cnc(Nc3ccc(N4CCN(C)CC4)cc3)nc2n1-c1cccc(C(C)(C)O)n1` [MK-1775], for which, in test [1], the “time to endpoint relative to vehicle” value was “no significant differences” and the “median time to endpoint (4x tumor volume relative to volume at randomization)” value came to 29.5 days. For the same molecule, in test [2], the “cleaved PARP (c-PARP)” value is recorded as “increased” and the “phosphorylated Histone H3 (pHistone H3)” value is given as “increases appreciably”. For the same molecule, the pCDK1 protein expression entry in [2] (when WEE1i was present) is recorded as “markedly lower”. Also, the “pHistone H3 relative to DEX and CORT134 treatment alone” value in test [3] is listed as “increased”. Moreover, the “proliferative capacity relative to vehicle” value in test [4] was “no significant difference”.

In general, viability refers to a read-out of living cells in per cent, often relative to untreated cells. With `C[C@@H]1C[C@H]2[C@@H]3CCC4=CC(=O)C=C[C@]4(C)[C@@]3(F)[C@@H](O)C[C@]2(C)[C@@]1(O)C(=O)CO` [DEX, dexamethasone], the viability at 0.1 µM in [5] came to 105%.

With `CNC(=O)c1ccc(N2C(=S)N(c3ccc(C#N)c(C(F)(F)F)c3)C(=O)C2(C)C)cc1F` [ENZ, enzalutamide], the “proliferative capacity compared to vehicle” value in test [6] is “significantly lower”. Moreover, in [7] (SOX2KO cells upon AR inhibition), the “E2F1, WEE1 and CDK1 expression levels” value is reported as “notably lower”. The p57 expression result in test [7] (SOX2KO cells with AR antagonism) is on record as “highest expression”. Besides, in test [1], the “time to endpoint relative to vehicle” value is on record as “no significant differences” and the “median time to endpoint (4x tumor volume relative to volume at randomization)” value was 29.5 days. Moreover, in test [2], the “phosphorylated Histone H3 (pHistone H3)” value is given as “low”. In [8], the “% cells at G2/M cell cycle phase” value is listed as 11.95%. In addition, in test [4], the “proliferative capacity relative to vehicle” value is reported as “no effect; also recorded: little effect”.

As to `Cn1cc(S(=O)(=O)N2CCC3=Cc4c(cnn4-c4ccc(F)cc4)C[C@]3(C(=O)c3cc(C(F)(F)F)ccn3)C2)cn1` [CORT134, relacorilant], the “cell viability relative to control” value in [9] is reported as “minimal differences”. Besides, the viability at 1 µM in test [5] came out at 91.8%.
